EP2832347B1, “Method for identifying patchouli odorant materials” (Takasago International Corporation, priority 2013, dated 2015)
Values joined by “and” are separate entries in the source; they are usually repeats but may differ in a detail not shown here. Equal values may be shown once.

Experiment: Long-lasting analysis on scent strip (GC-MS with internal standard)
Assay type: physicochemical
Conditions: for PA (GC-MS signal), sample 1-3 / Ratio PA/IS, sample 1-3: individual scent strips, listed as PA
Experimental: In one embodiment, the long-lasting analysis is carried out as follows: 50 µl of a 1 % solution of the identified candidate to be tested in alcohol, preferably ethanol, are applied on a scent strip, preferably a cellulosic scent strip, to be dosed. The strip is allowed to dry under ambient laboratory conditions, with normal room air movement, in particular no fan, heating or any mean or device to accelerate evaporation. After different times, each strip or at least the part of the scent strip including the area where the solution of the identified candidate to be tested was applied is extracted using 3 ml of alcohol, preferably ethanol, containing an internal standard, such as methyl decanoate. The extracts are then analyzed by gas chromatography and the result is normalized for the principal molecular ion of the identified candidate using the value for the internal standard.
50 µl of a 1 % solution of patchouli alcohol in ethanol was added by pipette to the tip to a series of different scent strips (SARL H. GRANGER-VEYRON, Privas, France). The strips were allowed to dry under ambient laboratory conditions.
After different times (t0, t0+1hour, t0+2hours, t0+4hours, t0+8hours) the tip of a strip where the 50 µl of the solution of the tested material had been applied was cut and put in a 30 ml bottle and extracted using 3 ml of ethanol, containing 50 µl of methyl decanoate as internal standard (10000 ppm solution in cyclohexane), added to each bottle. Care was taken to ensure the entire area around the point of application was included in the area that was cut and extracted. The content of the bottles was mixed for 30 min on a roller bed, and 2 ml vials were then filled with each sample.
Samples were triplicated, i.e. 3 scent strip tips were analysed for each time point.
In a first series of experiments, samples taken at t0, t0+1hour and t0+2hours were analyzed by GC-MS on a […] gas chromatography column (column BC-WAX (50m * 0.25mm * 0.15µm) which is a GC Sciences column supplied by Interchim, Montluçon, France).
In a second series of experiments, samples taken at t0, t0+4hours and t0+8hours were analyzed by GC-MS on a non-polar gas chromatography column (HP-5MS UI (30m * 0.25mm * 0.25µm) which is an Agilent column supplied by Chromoptic, Courtaboeuf, France).
In Tables 6-11, PA stands for patchouli alcohol and IS stands for the internal standard, i.e. methyl decanoate. When plotting the residual concentration of patchouli on the scent strip as a function of time, the mean ratio at t0 was normalized to 100 and then t0+1h, t0+2h, t0+4h and t0+8h were calculated; t0 being defined as 2 minutes after dosing the 50 µl of the solution of the tested material, which was applied towards the tip of the scent strip.
A "long-lasting" analysis of pogostone was performed as described in Example 5 with samples taken at t0, t0+1hour and t0+2hours.
In Tables 12-14 herebelow, POG stands for pogostone and IS stands for the internal standard, i.e. methyl decanoate. The mean ratio at t0 was normalized as described in Example 5.

[1] = t0, second series, HP-5MS UI column

**Q.** For `C[C@H]1CC[C@@]2(O)C(C)(C)[C@@H]3CC[C@@]2(C)[C@H]1C3` [Patchouli alcohol], which retained initial concentration (after 1 hour on scent strip) is on record?
**A.** at least 10%

**Q.** What about the “PA (GC-MS signal), mean value” (t0+1h, BC-WAX column) of the same compound?
**A.** 2.09E+06

**Q.** What about the “Ratio PA/IS, mean value” (t0+1h, BC-WAX column) of the same compound?
**A.** 6.70E-01

**Q.** And the “PA (GC-MS signal), sample 1-3” value (t0+1h, BC-WAX column)?
**A.** 2.10E+06 and 2.12E+06 and 2.05E+06

**Q.** What about the “Ratio PA/IS, sample 1-3” value (t0+1h, BC-WAX column) of the same compound?
**A.** 6.50E-01 and 7.16E-01 and 6.43E-01

**Q.** What about the “PA (GC-MS signal), mean value” (t0+2h, BC-WAX column) of the same compound?
**A.** 1.35E+06

**Q.** And the “Ratio PA/IS, mean value” (t0+2h, BC-WAX column)?
**A.** 4.29E-01

**Q.** And the “PA (GC-MS signal), sample 1-3” value (t0+2h, BC-WAX column)?
**A.** 1.38E+06 and 1.32E+06 and 1.35E+06

**Q.** What about the “Ratio PA/IS, sample 1-3” value (t0+2h, BC-WAX column) of the same compound?
**A.** 3.74E-01 and 4.52E-01 and 4.62E-01

**Q.** What about the “PA (GC-MS signal), mean value” (t0+4h, HP-5MS UI column) of the same compound?
**A.** 3.26E+06

**Q.** And the “Ratio PA/IS, mean value” (t0+4h, HP-5MS UI column)?
**A.** 4.15E-01

**Q.** And the “PA (GC-MS signal), sample 1-3” value (t0+4h, HP-5MS UI column)?
**A.** 3.83E+06 and 2.94E+06 and 3.00E+06

**Q.** And the “Ratio PA/IS, sample 1-3” value (t0+4h, HP-5MS UI column)?
**A.** 4.67E-01 and 3.89E-01 (2×)

**Q.** And the “PA (GC-MS signal), mean value” (t0+8h, HP-5MS UI column)?
**A.** 1.58E+06

**Q.** And the “Ratio PA/IS, mean value” (t0+8h, HP-5MS UI column)?
**A.** 1.86E-01

**Q.** And the “PA (GC-MS signal), sample 1-3” value (t0+8h, HP-5MS UI column)?
**A.** 2.02E+06 and 1.37E+06 and 1.35E+06

**Q.** What about the “Ratio PA/IS, sample 1-3” value (t0+8h, HP-5MS UI column) of the same compound?
**A.** 2.16E-01 and 1.77E-01 and 1.65E-01

**Q.** What about the “PA (GC-MS signal), mean value” (t0, BC-WAX column) of the same compound?
**A.** 2.93E+06

**Q.** What about the “Ratio PA/IS, mean value” (t0, BC-WAX column) of the same compound?
**A.** 9.67E-01

**Q.** And the “PA (GC-MS signal), sample 1-3” value (t0, BC-WAX column)?
**A.** 2.98E+06 and 2.87E+06 and 2.94E+06

**Q.** And the “Ratio PA/IS, sample 1-3” value (t0, BC-WAX column)?
**A.** 9.42E-01 and 9.89E-01 and 9.69E-01

**Q.** What about the “PA (GC-MS signal), mean value” [1] of the same compound?
**A.** 9.18E+06

**Q.** And the “Ratio PA/IS, mean value” [1]?
**A.** 1.24E+00

**Q.** And the “PA (GC-MS signal), sample 1-3” value [1]?
**A.** 9.37E+06 and 9.23E+06 and 8.94E+06

**Q.** What about the “Ratio PA/IS, sample 1-3” value [1] of the same compound?
**A.** 1.25E+00 and 1.22E+00 and 1.26E+00
